{
  "source": "patent US7132286B2",
  "about": "“Method for neural stem cell differentiation using valproate” (Psychiatric Genomics, Inc., priority 2001, dated 2006)",
  "assay_type_in_all_cases": "cell-based",
  "key": {"β tubulin-III": {"tested_on": "β tubulin-III", "assay": "Western blot of β tubulin-III expression in rat cortical stem cells", "conditions": "valproate 1 day"}, "[1]": {"tested_on": "human striatal stem cells (line 161)", "assay": "Neuronal differentiation of human striatal stem cells (β tubulin III neurons, total cells)", "conditions": "9 days", "procedure": "Expansion and differentiation of striatal human stem cells. Human stem cells were provided from ReNeuron Inc. (U.K.). Striatum was obtained after 6 to 12 weeks of gestation from routine legal abortion. Cell line was provided by ReNeuron at passage 16. The stem cells were expanded in untreated 25 cm^2 tissue culture flasks (Nunc, USA) in the presence of 20 ng/ml and 10 ng/ml of human recombinant EGF and bFGF respectively, in NSA basal serum-free medium (Euroclone, U.K). Fresh medium and growth factors were added every 3 days. In these conditions stem cells were growing as floating neurospheres. After 4 weeks, the neurospheres were harvested, treated with a mild papain treatment in HBSS and dissociated into a single cell suspension. Cells were counted and viability was estimated by trypan blue exclusion method. Cells were differentiated by growth factors removal. The cells were plated in NSA medium at 20,000 cells/well on LabTek permanox culture slides of 8 wells precoated with laminin (1 μg/ml). Cells were treated with valproate and BDNF for 9 days at 37° C. and a saturated humidified atmosphere of 5% CO2, 1% O2 and 94% N2. Fresh medium and re-treatment with factors was performed every 3 days.\nDrug treatment. For immunofluorescence and Western analysis, cells were treated daily with either 0.5 mM of valproate (Sigma), 10 ng/ml of BDNF (R & D Systems), 20 ng/ml of NT-3 (R & D Systems), 1 nM 9cis retinoic acid (Sigma) or a dilution of NCM for 6 or 7 days. In some experiments valproate was also added with NCM and/or 9cis RA for 7 days. For human stem cell experiments, valproate (0.5 mM) or BDNF (25 ng/ml) was added for 9 days. For neurite outgrowth experiments, cells were treated for 1 day with 0.5 mM valproate or 50 ng/ml of BDNF. Where applicable, medium was changed every 2 days. After about 5–10 days, preferably on day 6 (i.e., after 6 days of drug exposure) the cells were fixed with a 4% solution of para-formaldehyde (PFA) in PBS, prepared as follows:\nImmunofluorescent staining and visualization. Cells were plated at 20,000 cells/well in poly-L-ornithine/fibronectin (1 mg/ml) coated 24-well plates. […]\nFor counting, three to five different fields of interest at magnification 10× or 20× were chosen randomly. For immunofluorescence, 3 different black and white pictures were taken by field of interest with a digital camera CoolSnap Fx (Princeton) corresponding to the exposure of Cy2, Cy3 and Hoechst fluorescence. […] The percentage of neurons, astrocytes and GABAergic cells was determined by comparing the number of cells immunopositive for β-tubulin III, GFAP and GABA to the number of bis-benzamide stained nuclei (i.e., total cell number). […]"}, "rat cortical stem cells": {"tested_on": "rat cortical stem cells", "assay": "Neurite outgrowth of neurons derived from rat cortical stem cells (ArrayScan neurite outgrowth index)", "conditions": "1 day; 0.5 mM valproate, 50 ng/ml BDNF; control 35.1+0.3", "procedure": "Following plating cells were expanded for about 3–4 days (Passage 1, P1). Cells were treated daily with 10 ng/ml bFGF. The cultures were never permitted to reach more than 70% confluency. Cultures were then passaged as follows: 10 ml of HBSS without Ca^2+ and Mg^2+ was added to each 100 mm dish and the cells incubated at 37° C. for 5–15 minutes, or until sufficient numbers of the stem cells were rounded up. It is not expected that all cells in the culture will round up as there are several cell types in the culture at P0. The pH of the HBSS should be neutral at all times during this incubation. Cells were then removed from the dish by pipetting with a 5 ml pipette, and collected in a 15 or 50 ml conical tube, and centrifuged at 1000 g for 5 minutes. Cells were gently re-suspended in medium, counted, and plated at a density of 1×10^6 cells in 10 cm dishes and expanded for about 2 days in bFGF (Passage 1, P1). […]\nFor analysis of neurite outgrowth, digital images were taken with an ArrayScan HCS System (Cellomics, Pa.) of 100 cells/well treated with valproate (0.5 mM) and BDNF (50 ng/ml) for 1 day. […] Neurite outgrowth index is defined as the percentage of cells whose neurites total more than 20 μm in length, and is calculated using Cellomics' Neurite Outgrowth application."}},
  "note": "Entries after “also recorded” stand apart in the source; their conditions may differ.",
  "data": [
    {"smiles": "CCCC(CCC)C(=O)O", "note": "[valproate, 2-Propylpentanoic acid]", "values": [
      {"measurement": "β-tubulin III expression by Western blot", "setting": "β tubulin-III", "result": "increase of β-tubulin III expression; also recorded: increases β tubulin-III expression"},
      {"measurement": "effect on cell proliferation (cell density)", "setting": "[1]", "result": "without inhibiting cell proliferation"},
      {"measurement": "effect on number of β tubulin III positive neurons / neuronal differentiation", "setting": "[1]", "result": "increased the number of β tubulin III positive neurons compared to control and BDNF-treated cultures; also recorded: increases neuronal differentiation in human stem cell culture"},
      {"measurement": "neuronal differentiation", "setting": "[1]; 0.5 mM valproate, BDNF 25 ng/ml, untreated control 40%", "result": 70, "unit": "%"},
      {"measurement": "neurite index (percentage of cells whose neurites total more than 20 μm in length)", "setting": "rat cortical stem cells", "result": "49+1.9"}
    ]}
  ]
}
